Test results taken from US10793557B2, “Sting agonist compounds” (Merck Sharp & Dohme Corp., priority 2018, dated 2020).

Legend:
full-length HAQ STING = target: T1, full-length HAQ STING (Homo sapiens, UniProt Q86WV6, G230A/H232R/R293Q/R71H); experiment: 3H-cGAMP filtration binding assay (HAQ STING); conditions: competition with tritiated cGAMP, HAQ STING membrane
T1 construct: AviTag (after GG linker) (C); HRV3C cleavage site (after GS linker) (C); HIS8 (C); made in house; host or cells: Trichoplusia ni (Hi-Five) insect cells infected with baculovirus (virus generated and amplified in Sf21 cells); used as a washed membrane preparation
Summary of the method: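 Hi-Five (T. ni) membranes overexpressing the STING variant (2.2 ug/ml working) preincubated with compound 60 min at RT in PBS, then [3H]cGAMP (8 nM working stock) added for 60 min at RT. Bound radioactivity captured on GF/B filters and counted by scintillation; EC50 from 4-parameter fit of control-normalized activity.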

full-length WT STING = target: T2, full-length WT STING (Homo sapiens, UniProt Q86WV6, H232R); experiment: 3H-cGAMP filtration binding assay (WT STING); conditions: competition with tritiated cGAMP, WT STING membrane
T2 construct: AviTag (after gg linker) (C); HRV3C cleavage site (after gs linker) (C); HIS8 (C); made in house; host or cells: Trichoplusia ni (Hi-Five) insect cells infected with baculovirus (virus generated and amplified in Sf21 cells); used as a washed membrane preparation
Summary of the method: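 Competitive filtration binding of [3H]cGAMP (16 nM working stock) to T. ni membranes overexpressing full-length WT human STING, 60 min at RT in PBS. Bound radioactivity counted after GF/B filtration; 10-point 1:3 titration, EC50 from 4-parameter fit after control normalisation.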

[1] = test system: secretion of interferon-beta from THP1 cells; experiment: IFN-β secretion in THP1 cell culture (5 h); format: cell-based; conditions: Homo sapiens, THP-1, 5 h, 30 uM cGAMP = 100%; for activation at 30 µM: compound at 30 μM, read-out: % Effect at 30 μM relative to 2′3′-cGAMP
Summary of the method: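 Thawed THP1 cells (0.8×10^6/mL, RPMI with 0.5% FBS) exposed to compounds 1.5–30000 nM (0.3% DMSO) for 5 h at 37 °C. Supernatant IFN-β quantified by AlphaLISA. Percent effect normalised to 30 uM cGAMP and DMSO controls; EC50 from 4-parameter fit.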

T1 sequence (Q86WV6 with tags, fused parts or gaps R71H/G230A/H232R/R293Q): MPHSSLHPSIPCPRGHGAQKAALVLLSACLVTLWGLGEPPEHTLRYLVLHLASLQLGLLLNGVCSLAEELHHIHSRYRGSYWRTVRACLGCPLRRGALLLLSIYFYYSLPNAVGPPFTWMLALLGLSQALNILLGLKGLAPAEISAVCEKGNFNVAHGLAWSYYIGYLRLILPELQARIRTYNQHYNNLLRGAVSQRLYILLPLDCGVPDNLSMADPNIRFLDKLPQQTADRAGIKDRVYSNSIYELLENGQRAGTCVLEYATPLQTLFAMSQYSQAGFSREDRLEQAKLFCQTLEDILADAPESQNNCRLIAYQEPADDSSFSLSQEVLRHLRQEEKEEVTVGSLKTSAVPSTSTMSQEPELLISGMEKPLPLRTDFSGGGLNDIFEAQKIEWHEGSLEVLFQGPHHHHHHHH
T2 sequence (Q86WV6 with tags, fused parts or gaps H232R): as the sequence (Q86WV6 with tags, fused parts or gaps R71H/G230A/H232R/R293Q) above, with H71R, A230G, Q293R counted along it

| SMILES | EC50 (full-length HAQ STING) [nM] | EC50 (full-length WT STING) [nM] | activation at 30 µM [1] [%] | activation at 3 µM ([1]; compound at 3 uM, read-out: % Effect relative to 2′3′-cGAMP (@ 3 uM)) [%] |
| --- | --- | --- | --- | --- |
| COc1cc2sc(C(=O)[C@H]3C[C@@H]3C(=O)O)cc2c(F)c1OCCCOc1c(OC)cc2sc(C(=O)[C@@H]3C[C@H]3C(=O)O)cc2c1F [Example 87, trans-2-(5-(3-((2-((1R,2R)-2-carboxycyclopropanecarbony)-4-fluoro-6-methoxybenzo[b]thiophen-5-yl)oxy)propoxy)-4-fluoro-6-methoxybenzo[b]thiophene-2-carbonyl)cyclopropane carboxylic acid] | 167 | 1920 | 120 | – |
| COc1cc2sc(C(=O)C[C@@H](C)C(=O)O)cc2cc1CCCOc1c(OC)cc2sc(C(=O)C[C@H](C)C(=O)O)cc2c1F [Example 91, (R)-4-(5-(3-((2-((S)-3-carboxybutanoyl)-4-fluoro-6-methoxybenzo[b]thiophen-5-yl)oxy)propyl)-6-methoxybenzo[b]thiophen-2-yl)-2-methyl-4-oxobutanoic acid] | 7 | 30 | 109 | – |
| COc1cc2sc(C(=O)C[C@H](C)C(=O)O)cc2cc1OCCCCOc1cc2cc(C(=O)C[C@H](C)C(=O)O)sc2cc1OC [Example 92, (2S,2′S)-4,4′-(5,5′-(butane-1,4-diylbis(oxy))bis(6-methoxybenzo[b]thiophene-5,2-diyl))bis(2-methyl-4-oxobutanoic acid)] | 3 | 7 | 62 | – |
| COc1cc2sc(C(=O)C[C@H](C)C(=O)O)cc2cc1OCCCCOc1c(OC)cc2sc(C(=O)C[C@H](C)C(=O)O)cc2c1F [Example 93, (S)-4-(5-(4-((2-((S)-3-carboxybutanoyl)-4-fluoro-6-methoxybenzo[b]thiophen-5-yl)oxy)butoxy)-6-methoxybenzo[b]thiophen-2-yl)-2-methyl-4-oxobutanoic acid] | 1 | 3 | 87 | – |
| COc1cc2sc(C(=O)C[C@H](C)C(=O)O)cc2cc1OCCCCOc1cc2sc(C(=O)C[C@H](C)C(=O)O)cc2cc1OC [Example 94, (S)-4-(5-(4-((2-((S)-3-carboxybutanoyl)-5-methoxybenzo[b]thiophen-6-yl)oxy)butoxy)-6-methoxybenzo[b]thiophen-2-yl)-2-methyl-4-oxobutanoic acid] | 6 | 131 | 100 | – |
| COc1cc2cc(C(=O)C[C@H](C)C(=O)O)sc2cc1OCCCCOc1cc2sc(C(=O)C[C@H](C)C(=O)O)cc2cc1OC [Example 95, (2S,2′S)-4,4′-(6,6′-(butane-1.4-diylbis(oxy))bis(5-methoxybenzo[b]thiophene-6,2-diyl))bis(2-methyl-4-oxobutanoic acid)] | 237 | 813 | 72 | – |
| COc1cc2sc(C(=O)C[C@H](C)C(=O)O)cc2cc1CCCOc1c(OC)cc2sc(CC[C@H](C)C(=O)O)cc2c1F [Example 100, (S)-4-(5-(3-((2-((S)-3-carboxybutyl)-4-fluoro-6-methoxybenzo[b]thiophen-5-yl)oxy)propyl)-6-methoxybenzo[b]thiophen-2-yl)-2-methyl-4-oxobutanoic acid] | 277 | 2240 | – | 33 |
| COc1cc2sc(CC[C@H](C)C(=O)O)cc2c(F)c1OCCCOc1c(OC)cc2sc(C(=O)C[C@H](C)C(=O)O)cc2c1F [Example 101, (S)-4-(5-(3-((2-((S)-3-carboxybutyl)-4-fluoro-6-methoxybenzo[b]thiophen-5-yl)oxy)propoxy)-4-fluoro-6-methoxybenzo[b]thiophen-2-yl)-2-methyl-4-oxobutanoic acid] | 1 | 2 | 85 | – |
| COc1cc2sc(C(=O)C[C@H](C)C(=O)O)cc2cc1OCCCCCOc1cc2cc(C(=O)C[C@H](C)C(=O)O)sc2cc1OC [Example 102, (2S,2′S)-4,4′-(5,5′-(pentane-1,5-diylbis(oxy))bis(6-methoxybenzo[b]thiophene-5,2-diyl))bis(2-methyl-4-oxobutanoic acid)] | 15 | 213 | 69 | – |
| COc1cc2sc(C(=O)C[C@H](C)C(=O)O)cc2cc1OCCCCCOc1c(OC)cc2sc(C(=O)C[C@H](C)C(=O)O)cc2c1F [Example 103, (S)-4-(5-((5-((2-((S)-3-carboxybutanoyl)-4-fluoro-6-methoxybenzo[b]thiophen-5-yl)oxy)pentyl)oxy)-6-methoxybenzo[b]thiophen-2-yl)-2-methyl-4-oxobutanoic acid] | 22 | 371 | 79 | – |
| COc1cc2sc(C(=O)C[C@H](C)C(=O)O)cc2cc1OCCCCCOc1cc2sc(C(=O)C[C@H](C)C(=O)O)cc2cc1OC [Example 104, (S)-4-(5-((5-((2-((S)-3-carboxybutanoyl)-5-methoxybenzo[b]thiophen-6-yl)oxy)pentyl)oxy)-6-methoxybenzo [b]thiophen-2-yl)-2-methyl-4-oxobutanoic acid] | 467 | 8900 | 35 | – |
| COc1cc2sc(C(=O)C[C@H](C)C(=O)O)cc2c(F)c1CCCOc1c(OC)cc2sc(CC[C@H](C)C(=O)O)cc2c1F [Example 105, (S)-4-(5-(3-((2-((S)-3-carboxybutyl)-4-fluoro-6-methoxybenzo[b]thiophen-5-yl)oxy)propyl)-4-fluoro-6-methoxybenzo[b]thiophen-2-yl)-2-methyl-4-oxobutanoic acid] | 39 | 311 | 130 | – |
| COc1cc2sc(C(=O)C[C@@H](C)C(=O)O)cc2cc1CCCOc1c(OC)cc2sc(C(=O)C[C@@H](C)C(=O)O)cc2c1F [Example 108, (R)-4-(5-(3-((2-((R)-3-carboxybutanoyl)-4-fluoro-6-methoxybenzo[b]thiophen-5-yl)oxy)propyl)-6-methoxybenzo[b]thiophen-2-yl)-2-methyl-4-oxobutanoic acid] | 35 | 244 | 86 | – |

Now from value to compound, other results behind:

| EC50 (full-length HAQ STING) [nM] | EC50 (full-length WT STING) [nM] | SMILES | activation at 30 µM [1] [%] | activation at 3 µM ([1]; compound at 3 uM, read-out: % Effect relative to 2′3′-cGAMP (@ 3 uM)) [%] |
| --- | --- | --- | --- | --- |
| 50 | 1060 | COc1cc2sc(C(=O)C[C@H](C)C(=O)O)cc2cc1CCCOc1c(OC)cc2sc(C(=O)[C@@H]3C[C@H]3C(=O)O)cc2c1F [Example 84, trans-2-(5-(3-(2-((S)-3-carboxybutanoyl)-6-methoxybenzo[b]thiophen-5-yl)propoxy)-4-fluoro-6-methoxybenzo[b]thiophene-2-carbonyl)-cyclopropanecarboxylic acid] | 148 | – |
| 1 | 9 | COc1cc2sc(C(=O)C[C@H](C)C(=O)O)cc2c(F)c1OCCCOc1c(OC)cc2sc(C(=O)[C@@H]3C[C@H]3C(=O)O)cc2c1F [Example 86, trans-2-(5-(3-((2-((S)-3-carboxybutanoyl)-4-fluoro-6-methoxybenzo[b]thiophen-5-yl)oxy)propoxy)-4-fluoro-6-methoxybenzo[b]thiophene-2-carbonyl)cyclopropane carboxylic acid] | 131 | – |
| 2 | 94 | COc1cc2sc(C(=O)C[C@H](C)C(=O)O)cc2cc1OCCCOc1c(OC)cc2sc(C(=O)[C@@H]3C[C@H]3C(=O)O)cc2c1F [Example 89, trans-2-(5-(3-((2-((S)-3-carboxybutanoyl)-6-methoxybenzo[b]thiophen-5-yl)oxy)propoxy)-4-fluoro-6-methoxybenzo[b]thiophene-2-carbonyl)cyclopropane carboxylic acid] | 112 | – |
| 58 | 978 | COc1cc2cc(C(=O)C[C@H](C)C(=O)O)sc2cc1OCCCOc1c(OC)cc2sc(C(=O)[C@@H]3C[C@H]3C(=O)O)cc2c1F [Example 90, trans-2-(5-(3-((2-((S)-3-carboxybutanoyl)-5-methoxybenzo[b]thiophen-6-yl)oxy)propoxy)-4-fluoro-6-methoxybenzo[b]thiophene-2-carbonyl)cyclopropane carboxylic acid] | 125 | – |
| 10 | 251 | COc1cc2sc(C(=O)C[C@H](C)C(=O)O)cc2c(F)c1CCCOc1c(OC)cc2sc(C(=O)[C@@H]3CC3C(=O)O)cc2c1F (stereo partly drawn) [Example 106, trans-2-(5-(3-(2-((S)-3-carboxybutanoyl)-4-fluoro-6-methoxybenzo[b]thiophen-5-yl)propoxy)-4-fluoro-6-methoxybenzo[b]thiophene-2-carbonyl)cyclopropane carboxylic acid] | 74 | – |
| 1 | 2 | COc1cc2sc(C(=O)C[C@H](C)C(=O)O)cc2c(F)c1CCCOc1c(OC)cc2sc(C(=O)[C@@H]3CCC3C(=O)O)cc2c1F (stereo partly drawn) [Example 107, trans-2-(5-(3-(2-((S)-3-carboxybutanoyl)-4-fluoro-6-methoxybenzo[b]thiophen-5-yl)propoxy)-4-fluoro-6-methoxybenzo[b]thiophene-2-carbonyl)cyclobutane carboxylic acid] | 108 | – |
